Measurements taken from patent publication US9307763B2, “Ligands for odor receptors and olfactory neurons” (The Regents of the University of California, priority 2010, dated 2016).

What was measured:
Or82a = target: T1, Or82a (Drosophila melanogaster, UniProt P82986); conditions: single strong ligand of the training set; cited from earlier work
T1 sequence (P82986 1-385): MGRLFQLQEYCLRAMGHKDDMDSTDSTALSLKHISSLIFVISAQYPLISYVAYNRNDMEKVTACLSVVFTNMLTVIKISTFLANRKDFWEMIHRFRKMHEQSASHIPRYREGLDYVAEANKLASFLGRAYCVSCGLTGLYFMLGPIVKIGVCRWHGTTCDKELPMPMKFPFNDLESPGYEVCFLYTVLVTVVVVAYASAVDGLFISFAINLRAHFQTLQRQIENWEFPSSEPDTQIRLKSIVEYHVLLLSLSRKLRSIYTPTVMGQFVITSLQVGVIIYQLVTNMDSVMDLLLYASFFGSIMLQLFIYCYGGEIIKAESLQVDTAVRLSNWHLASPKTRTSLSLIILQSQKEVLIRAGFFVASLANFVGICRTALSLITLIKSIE
T1 sequence (Q9VNB5 1-486 partner): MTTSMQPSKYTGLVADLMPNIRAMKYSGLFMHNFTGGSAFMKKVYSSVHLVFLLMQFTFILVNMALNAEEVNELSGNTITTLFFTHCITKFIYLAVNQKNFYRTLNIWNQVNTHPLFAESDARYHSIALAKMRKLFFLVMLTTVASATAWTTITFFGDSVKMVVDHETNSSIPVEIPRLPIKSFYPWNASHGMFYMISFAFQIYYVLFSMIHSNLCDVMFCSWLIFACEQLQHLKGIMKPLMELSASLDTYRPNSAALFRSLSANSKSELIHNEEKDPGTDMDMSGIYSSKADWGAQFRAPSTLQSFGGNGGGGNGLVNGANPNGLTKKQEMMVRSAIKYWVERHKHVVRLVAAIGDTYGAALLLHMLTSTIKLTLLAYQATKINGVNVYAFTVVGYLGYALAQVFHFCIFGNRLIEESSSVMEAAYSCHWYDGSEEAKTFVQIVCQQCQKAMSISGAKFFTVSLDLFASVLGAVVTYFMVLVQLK

CO2 responsive neurons = conditions: […]; averaged across the top 2 responders of the 4 species; cited from earlier work
Or98a, ab7A = target: T2, Or98a, ab7A (Drosophila melanogaster, UniProt Q9VAZ3); test: single-sensillum electrophysiology; type: in vivo; conditions: odorant at 10^-2
T2 construct: The 9 Ors tested are expressed in well-defined olfactory receptor neurons (ORNs) housed within the large and small basiconic sensilla; from tissue; host or cells: D. melanogaster antenna, ab7A olfactory receptor neuron (in vivo recording)
T2 sequence (Q9VAZ3 1-397): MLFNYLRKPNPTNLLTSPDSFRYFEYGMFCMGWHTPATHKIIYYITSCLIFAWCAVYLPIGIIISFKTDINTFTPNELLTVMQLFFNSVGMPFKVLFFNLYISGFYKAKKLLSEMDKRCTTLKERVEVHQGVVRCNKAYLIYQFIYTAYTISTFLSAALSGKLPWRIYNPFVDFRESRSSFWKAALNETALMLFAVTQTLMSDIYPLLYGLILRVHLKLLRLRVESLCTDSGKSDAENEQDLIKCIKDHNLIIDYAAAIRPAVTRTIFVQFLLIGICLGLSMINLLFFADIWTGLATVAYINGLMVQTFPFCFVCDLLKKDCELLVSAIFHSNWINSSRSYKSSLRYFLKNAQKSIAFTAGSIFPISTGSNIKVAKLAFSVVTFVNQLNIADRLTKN
T2 sequence (Q9VNB5 1-486 partner): T1 sequence (Q9VNB5 1-486 partner)
Experimental: The results of the in silico screen are provocative. However in order to verify whether these predictions were meaningful, functional evidence was obtained. In order to validate the success of the in silico predictions the responses of 9 Odor receptors using single-sensillum electrophysiology directly on the Drosophila melanogaster antenna were analyzed. For each Odor receptor several odorants were tested from the top 500 predicted hits. A sampling of ˜192 novel odorants were tested with ˜11-21 novel odorants tested for each receptor, which were scattered somewhat randomly within the top 500 predictions for each receptor, providing a relatively unbiased set of chemical structures.
To test identified compounds any number of biological assays can be used to measure ORN activity in the presence of a putative ligand/compounds. […] For the purpose of testing each of these volatile compounds the compounds were diluted to ˜10^−2 in paraffin oil or distilled water. The 9 Ors tested are expressed in well-defined olfactory receptor neurons (ORNs) housed within the large and small basiconic sensilla (ab1-ab7) on the antenna. A previously identified diagnostic panel of odorants was used to distinguish individual classes of sensilla (ab1-ab7) and therefore identified the sensilla that contained the target Or expressing ORN. […]

SMILES	activation of Or82a (Or82a)	Final Activity (CO2 responsive neurons)	activation of odor receptor (firing rate) (Or98a, ab7A)
CC(=O)OC/C=C(\C)CCC=C(C)C [geranyl acetate, reference compound]	activated strongly	0	–
CC(=O)OCC=C(C)C [prenyl acetate]	–	–	> 250 spikes/sec
